Columns and labels:
[1] = Product stability by visual assessment of color and homogeneity after storage; format: physicochemical; details: for Color Stability of ER / Color Stability / Homogeneity: 2.5% ER; for Color Stability / Homogeneity: 3 months at ~25° C., visual
Method: Stability of product is evaluated after a storage period of 3 months at ˜25° C. by visual measurement to assess color and homogeneity of product.

[2] = system: skin colour of human panelists' face; assay: Efficacy on skin-lightening, half-face cleanser use versus placebo cleanser; format: in vivo
From the text: Thirty three human panelists are recruited who are required to use a known amount of the cleansing product on one half of their face. At the same time, the other half was rinsed with a placebo cleanser. Panelists were required to do this for eight weeks. The color of the skin is monitored at regular intervals by trained visual graders and instruments. A final assessment is made at eight weeks. The value for skin-lightening indicated is in comparison to the placebo effect.

[3] = system: human skin; assay: Skin delivery of resorcinol from product applied to human volunteer forearms; format: in vivo; details: for Skin Delivery of ER: 2.5% ER, pH 6.5, percentage of initial dose after rinse
Method: Delivery of resorcinol on human skin was assessed through direct application of product to human volunteer forearms. A known dose of the product was applied to the area, and the product was rubbed into the area. The area on the arm was rinsed with a fixed amount of water. The collected rinse liquor was analyzed for resorcinol, and the amount delivered to skin was calculated by subtracting from the dosage applied. This is expressed as a percentage of the initial dose.

[4] = liquid cleanser with 7% neutralised fatty acid (C18/C14/C12 mix), pH 9.2
[5] = liquid cleanser with 7% sodium lauryl sulphate, pH 6.5

CCc1ccc(O)cc1O [4 ethyl resorcinol]
Color Stability of ER ([1]; cleanser with SLES (3EO) 4.5%, coca amido propyl betaine 1.47%, decyl polyglucoside (HLB 13-15) 1.5%, pH 6.5): Good | Color Stability of ER ([1]; cleanser with SLES (3EO) 6.8%, coca amido propyl betaine 2.2%, pH 6.5): Good | Color Stability [1, 4]: Dark brown | Homogeneity [1, 4]: Small precipitate | Color Stability [1, 5]: Good | Homogeneity [1, 5]: Good | stability of 4 ethyl resorcinol in the formulation ([1]; pH of the formulation below 7.5): good | Efficacy on skin-lightening ([2]; cleanser with SLES (3EO) 6.8%, coca amido propyl betaine 2.2%, 2.5% ER, pH 6.5, eight weeks, in comparison to placebo effect): −0.7 | skin colour (lightening) ([2]; through a cleansing system with anionic and amphoteric surfactant): significantly improves skin colour | delivery of 4 ethyl resorcinol from the formulation on the skin ([3]; anionic and amphoteric surfactant, or in combination with a nonionic surfactant): significant delivery | Skin Delivery of ER ([3]; cleanser with SLES (3EO) 4.5%, coca amido propyl betaine 1.47%, decyl polyglucoside 1.5%): 12.4% | Skin Delivery of ER ([3]; cleanser with SLES (3EO) 6.8%, coca amido propyl betaine 2.2%): 7.7%

— patent publication US20060239945A1, “Cleansing composition” (Conopco Inc, d/b/a UNILEVER, priority 2004, published 2006)
